Like-named read-outs stand apart in the source and are kept apart here.

The values below come from patent publication US12357624B2, “Low dose pridopidine for Parkinson's Disease and other diseases associated with parkinsonism” (PRILENIA NEUROTHERAPEUTICS LTD., priority 2019, dated 2025).

The test system of one assay is SOD1G93A motor neurons. Conditions: 0.1 and 1 μM; cited from earlier work.
Assay [1] has as its system GDNF, BDNF, phosphorylated ERK1/2. The following applies: 0.3 mg/kg, 35 days. On the procedure:
Animals prepared for Western blot analysis were euthanized by cervical dislocation; their brains were rapidly extracted and frozen on crushed dry ice. Tissue samples were dissected out in a cryostat chamber (−14° C.). […] The striatum was dissected out using a scalpel blade. Tissue samples from the substantia nigra were taken with a tissue puncher of 2 mm diameter spanning across rostrocaudal levels −2.70 to −3.80 relative to the bregma. The samples were kept frozen until further analysis.
Tissue homogenates were prepared in cell lysis buffer (20 mmol/LTris (pH 7.5), 150 mmol/L NaCl, 1 mmol/L EDTA, 1 mmol/L EGTA, 1% Triton X-100, 2.5 mmol/L sodium pyrophosphate, 1 mmol/L |3-glycerolphosphate, 1 mmol/L Na3VO4, […] leupeptin, and 1 mmol/L phenylmethylsulfonyl fluoride). Twenty micrograms of protein was separated on a 10% SDS polyacrylamide gel. […] Thereafter, membranes were incubated overnight at 4° C. using one of the following primary antibodies: rabbit polyclonal anti-GDNF (Santa Cruz Biotechnology, Inc., Santa Cruz, CA; 1:1000) and monoclonal anti-BDNF (Santa Cruz Biotechnology, Inc., 1:1000); rabbit polyclonal antibodies against Thr202/Tyr204-phosphorylated ERK1/2 (p44/42-MAPK; Cell Signaling Technology Inc., Danvers, MA, 1:2000). Following appropriate washing steps, membranes were incubated with HRP-linked secondary antibodies (Sigma-Aldrich, Deisenhofen, Germany; 1:15000). Signals were visualized using a chemiluminescence kit (Merck Millipore, Watford, Hertfordshire, UK), and images were acquired using a CCD camera (LAS1000 system, Fuji Films, Tokyo, Japan). Optical density was measured on specific immunoreactive bands using NIH Image J software. Membranes were then stripped and reprobed with |-actin antibodies (Sigma-Aldrich, 1:50,000). The optical density of specific bands was then normalized to the |-actin band in the same lane.

Assay [2] deals with TH-immunoreactive fibers in the lateral striatum. The following applies: chronic. On the procedure: Mice allocated to immunohistochemistry were perfusion-fixed on the day after the last rug/saline administration (interval of approx. 20 h from the last injection). Animals were deeply anesthetized with sodium pentobarbital (240 mg/kg, i.p.) and transcardially perfused with 0.9% saline solution, followed by ice-cold buffered 4% paraformaldehyde (pH 7.4). […] Coronal sections of 30 (1 m thickness were cut on a sliding microtome and stored at −20° C. in a nonfreezing solution (30% ethylene glycol and 30% glycerol in 0.1 M phosphate buffer).
Immunohistochemistry and quantitative analyses were performed according to established protocols [Francardo V, Bez F, Wieloch T, Nissbrandt H, Ruscher K, Cenci 33. MA. Neurobiology of Disease. […] Experimental Eye Research. […] (rabbit anti-TH antiserum from Pel-Freez, Rogers, AR, 1:1000) and Cluster of Differentiation 68 (CD68) (rat anti-CD68 antiserum from AbD Serotec, Kidlington, Oxfordshire, UK; 1:1000). Quantitative analyses were performed by an experimentally blinded investigator using the following methods.
Results were expressed as the total number of TH-immunopositive pixels per sample area (averaged across areas). […] The high-magnification analysis of TH fibers on random sample areas was complemented by optical density (O.D.) measurements of TH immunostaining across the entire dorsolateral and ventro-lateral striatum. […]

The test system of assay [3] is TH immunostaining, ventrolateral and dorsolateral striatum. An excerpt:
Results were expressed as the total number of TH-immunopositive pixels per sample area (averaged across areas). […] The high-magnification analysis of TH fibers on random sample areas was complemented by optical density (O.D.) measurements of TH immunostaining across the entire dorsolateral and ventro-lateral striatum. Although this method is much less sensitive than the actual fiber analysis [Francardo V, Bez F, Wieloch T, Nissbrandt H, Ruscher K, Cenci 33. MA. […] Brain: A Journal of Neurology.
The O.D. analysis was carried out in the same rostrocaudal levels using NIH Image J Software, as described in [Francardo V, Recchia A, Popovic N, Andersson D, Nissbrandt H, Cenci M A. Impact of the lesion procedure on the profiles of motor impairment and molecular responsiveness to L-DOPA in the 6-hydroxydopamine mouse model of Parkinson's disease. Neurobiology of Disease.

In assay [4] the test system is B104 neuroblastoma cell line. The following applies: 100 nM and 1 μM; vs control untreated cells; cited from earlier work.
A further assay relates to 6-OHDA-lesioned mice. The procedure:
The study was performed in male C57B16J mice weighing approx. 25 g and having an age of 8 to 9 weeks at the beginning of the experiments. A total of 65 wild-type mice and 52 S1R knockout (KO) mice were used. S1R knockout mice and wild-type littermates (both genders) were bred on a C57BL6J background. Our S1R KO line is derived from the well-characterized Sigmar1^Gt(OST422756)Lex mouse strain distributed by the Mutant Mouse Resource Regional Centre (MMRRC) The mice were housed under a 12-h light/dark cycle with free access to food and water.
Lesions were performed according to previously described procedures [Francardo V, Bez F, Wieloch T, Nissbrandt H, Ruscher K, Cenci 33. MA. […] Brain: A Journal of Neurology. […] 6-OHDA-HCl (Sigma-Aldrich AB, Stockholm, Sweden) was freshly dissolved in 0.02% ascorbate-saline at the concentration of 3.2 mg free base per milliliter. […] The solution was injected via a glass capillary (tip diameter−50 (1 m) at the rate of 0.5 (1 L/min, and the capillary was left in place for 2 mi after each injection.
The first injection was given immediately upon completion of lesion surgery. […] An impaired capacity to perform adjusting steps during experimenter-imposed movements (stepping test) reflects both akinetic and postural deficits relevant to PD [Blume S R, Cass D K, Tseng K Y. Stepping test in mice: a reliable approach in determining forelimb akinesia in MPTP-induced Parkinson's Disease. Experimental Neurology. […] Experimental Neurology. […] The mouse was placed at the entrance of a custom-made plastic corridor (7 cm wide, 1 m long, flanked by 10-cm-high walls), gently lifted by the tail, and pulled backwards with a fixed speed (1 m/4 s). Each trial was video-recorded, and the footage was used to count the number of adjusting steps performed by each forelimb. Trials in which mice turned their body by 90° towards the walls of the corridor (in an attempt to escape or explore) were discarded. In each session, mice were tested until 3 valid trials per animal were obtained. Results were expressed as the percentage of steps performed by the forelimb contralateral to the lesion (left) over the total number of steps (mean of 3 trials per session).

Regarding `CCCN1CCC(c2cccc(S(C)(=O)=O)c2)CC1` [pridopidine, 4-[3-(methylsulfonyl)phenyl]-1-propyl-piperidine], the “BDNF axonal transport velocity” value in the assay on SOD1G93A motor neurons was “significantly accelerates the velocity”. Moreover, in assay [1] (striatum), the “striatal BDNF level vs saline” value is recorded as “+80.8%”, the “striatal GDNF level vs saline” value is recorded as “+37.6%” and the “striatal phosphorylated ERK1/2 vs saline” value was “+71%”. In addition, in assay [1] (substantia nigra), the “BDNF level in the SN vs saline” value is on record as “+88.5%”, the “GDNF level in the SN vs saline” value was “only BDNF levels showed a significant increase” and the “nigral phosphorylated ERK1/2 vs saline” value is on record as “reached significance only in the striatum”. In addition, the “TH fiber profiles, increase in median values relative to saline” value in assay [2] (0.3 mg/kg s.c. daily) was “about 15 fold”. The “TH fiber profiles vs saline” value in assay [2] (1.0 mg/kg s.c. daily) is listed as “did not achieve statistical significance”. Besides, the “TH O.D. vs saline” value in assay [3] (0.3 mg/kg, dorsolateral striatum) is recorded as “significant, albeit smaller increase”. The “TH O.D. above saline control levels” value in assay [3] (0.3 mg/kg, ventrolateral striatum) was “greater than twofold increase”. For the same molecule, the “TH O.D. vs saline” value in assay [3] (1 mg/kg, dorsolateral striatum) is on record as “only a trend”. In addition, the “TH O.D. vs saline” value in assay [3] (1 mg/kg, ventrolateral striatum) is recorded as “trend towards an increase that did not reach statistical significance”. The BDNF secretion result in assay [4] is recorded as “enhanced BDNF secretion”. In addition, the stepping test performance entry in the assay on 6-OHDA-lesioned mice (0.3 mg/kg s.c. daily) is “gradual improvement, diverging significantly from the saline-treated group on weeks 4 and 5”. For the same molecule, the “stepping test, improvement above the vehicle (saline)” value with 6-OHDA-lesioned mice (0.3 mg/kg s.c. daily, week 5) was about 94%. The stepping test performance result in the assay on 6-OHDA-lesioned mice (1.0 mg/kg s.c. daily, last 2 weeks) is “difference from saline-treated mice did not reach significance”. In the assay with 6-OHDA-lesioned mice (1.0 mg/kg s.c. daily, week 5), the “stepping test, difference vs sham” value is given as about 49%. For the same molecule, in the assay with 6-OHDA-lesioned mice (week 1, pridopidine-treated mice (0.3 or 1.0 mg/kg)), the “stepping test, difference vs sham” value is recorded as about 60%.
